This is an account of results in PMC8161495 (ACS Central Science, 2021).

Molecules are shown by their SMILES.

The assay has as its target T1, full-length rat TRPV2 (rTRPV2) (Rattus norvegicus, UniProt Q9WUD2).
T1 sequence (Q9WUD2 1-761): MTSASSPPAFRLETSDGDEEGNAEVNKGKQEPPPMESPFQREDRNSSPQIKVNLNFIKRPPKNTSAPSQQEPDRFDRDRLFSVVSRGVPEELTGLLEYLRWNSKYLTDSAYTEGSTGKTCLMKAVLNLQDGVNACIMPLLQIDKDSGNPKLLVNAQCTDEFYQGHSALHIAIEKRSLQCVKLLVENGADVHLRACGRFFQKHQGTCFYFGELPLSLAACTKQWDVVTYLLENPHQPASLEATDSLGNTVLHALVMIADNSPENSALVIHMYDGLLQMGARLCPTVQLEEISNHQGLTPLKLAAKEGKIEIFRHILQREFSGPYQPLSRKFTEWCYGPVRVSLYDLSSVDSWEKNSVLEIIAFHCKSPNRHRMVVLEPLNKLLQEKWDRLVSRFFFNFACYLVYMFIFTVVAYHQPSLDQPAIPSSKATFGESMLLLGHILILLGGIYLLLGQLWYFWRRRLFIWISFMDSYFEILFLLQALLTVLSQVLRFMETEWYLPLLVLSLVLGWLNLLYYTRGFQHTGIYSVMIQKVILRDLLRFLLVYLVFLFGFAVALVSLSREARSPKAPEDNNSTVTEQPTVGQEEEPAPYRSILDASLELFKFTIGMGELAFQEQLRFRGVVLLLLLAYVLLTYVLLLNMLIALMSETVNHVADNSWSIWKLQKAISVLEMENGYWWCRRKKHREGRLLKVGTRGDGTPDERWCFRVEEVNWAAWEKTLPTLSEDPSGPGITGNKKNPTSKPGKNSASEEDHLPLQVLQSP
Nature of the assay: cryo-EM structure. The format is binding.

Take `COc1cc(/C=C/C(=O)N2CCC=CC2=O)cc(OC)c1OC` [PL, piperlongumine]: the “cryo-EM structure (3.5 Å, C4 symmetry)” value is “The cryo-EM density map and atomic coordinates of PL-bound rat TRPV2 are deposited”.
